Experimental data as given in patent US11208376B2, “Use of a metal supplement in animal feed” (Nouryon Chemicals International B.V., priority 2009, dated 2021).
Marks after values point to notes of the source that are not given here. Blank lines part the entries; values can stand above or below the molecule they belong to.

Legend:
[1] = Precipitation test of copper sources with two-fold molar excess of phytic acid, soluble Cu by FAAS; assay type: physicochemical; conditions: one day at ambient temperature
Protocol: The following 3 concentrations of the final metal concentration were tested, i.e. high (H) at 25 mmol/kg, medium (M) at 5 mmol/kg, and low (L) at 0.5 mmol/kg. For each concentration and pH a separate phytic acid stock solution was prepared by diluting the calculated amount of phytic acid with de-mineralized water, setting the pH with diluted NH4OH solutions, and filling up with demineralized water up to the calculated amount. […] The pH was adjusted to 4.97 with 0.5 M H2SO4. Then an equal number of 0.0125 mol/kg solutions were prepared by diluting the above solutions with demineralized water. […] On all 4 zinc-containing and 3 copper-containing solutions in total 6 precipitation tests were carried out, i.e. at levels H, M, and L and for each level at pH=4 and at pH=6. These tests were marked H4, H6, M4, M6, L4, and L6, respectively. In total 42 samples were obtained in this way. After standing for one day the precipitate was removed and the mother liquor was analyzed for its zinc or copper content by FAAS (Flame Atomic Absorption Spectroscopy). […] The total weight was exactly determined again. The 50 ml test tubes were filled according to Table 1 below.

[2] = Precipitation test of zinc sources with two-fold molar excess of phytic acid, soluble Zn by FAAS; assay type: physicochemical; conditions: for Soluble Zn(II) after subjecting complexed or chelated Zn(II) to a two-fold molar excess of phytic acid: one day at ambient temperature
Protocol: The following 3 concentrations of the final metal concentration were tested, i.e. high (H) at 25 mmol/kg, medium (M) at 5 mmol/kg, and low (L) at 0.5 mmol/kg. For each concentration and pH a separate phytic acid stock solution was prepared by diluting the calculated amount of phytic acid with de-mineralized water, setting the pH with diluted NH4OH solutions, and filling up with demineralized water up to the calculated amount. […] The pH was not adjusted any further. Then an equal number of 0.0125 mol/kg solutions were prepared by diluting the above solutions with demineralized water. […] On all 4 zinc-containing and 3 copper-containing solutions in total 6 precipitation tests were carried out, i.e. at levels H, M, and L and for each level at pH=4 and at pH=6. These tests were marked H4, H6, M4, M6, L4, and L6, respectively. In total 42 samples were obtained in this way. After standing for one day the precipitate was removed and the mother liquor was analyzed for its zinc or copper content by FAAS (Flame Atomic Absorption Spectroscopy). […] The total weight was exactly determined again. The 50 ml test tubes were filled according to Table 1 below.

[3] = without the presence of phytate; result in words
Protocol: A small excess of 2% of the complexing or chelating agent intake was used to prepare the metal-containing solutions. This ensures a complete complexation or chelation of the metal ions. The mixture was dissolved in part of the demineralized water. The pH was adjusted in order to reach a pH value between approximately 4 and 5. All solutions were filled up with demineralized water to 400 g.

[4] = H4: pH 4, metal 25 mmol/kg, phytic acid 50 mmol/kg
[5] = H6: pH 6, metal 25 mmol/kg, phytic acid 50 mmol/kg
[6] = L4: pH 4, metal 0.5 mmol/kg, phytic acid 1 mmol/kg
[7] = L6: pH 6, metal 0.5 mmol/kg, phytic acid 1 mmol/kg
[8] = M4: pH 4, metal 5 mmol/kg, phytic acid 10 mmol/kg
[9] = M6: pH 6, metal 5 mmol/kg, phytic acid 10 mmol/kg

- Soluble Cu(II) after subjecting complexed or chelated Cu(II) to a two-fold molar excess of phytic acid [1, 4]: 64* % (mol/mol)
- Soluble Cu(II) after subjecting complexed or chelated Cu(II) to a two-fold molar excess of phytic acid [1, 5]: 26* % (mol/mol)
- Soluble Cu(II) after subjecting complexed or chelated Cu(II) to a two-fold molar excess of phytic acid [1, 6]: 97 % (mol/mol)
- Soluble Cu(II) after subjecting complexed or chelated Cu(II) to a two-fold molar excess of phytic acid [1, 7]: 80 % (mol/mol)
- Soluble Cu(II) after subjecting complexed or chelated Cu(II) to a two-fold molar excess of phytic acid [1, 8]: 97* % (mol/mol)
- Soluble Cu(II) after subjecting complexed or chelated Cu(II) to a two-fold molar excess of phytic acid [1, 9]: 36* % (mol/mol)
Structure (SMILES): O=S(=O)([O-])[O-].[Cu+2] [CuSO4]

Structure (SMILES): CSCC[C@H](N)C(=O)[O-].CSCC[C@H](N)C(=O)[O-].[Zn+2] [Zn(Methionine)2]
- Soluble Zn(II) after subjecting complexed or chelated Zn(II) to a two-fold molar excess of phytic acid [2, 4]: 21* % (mol/mol)
- Soluble Zn(II) after subjecting complexed or chelated Zn(II) to a two-fold molar excess of phytic acid [2, 5]: 32* % (mol/mol)
- Soluble Zn(II) after subjecting complexed or chelated Zn(II) to a two-fold molar excess of phytic acid [2, 6]: 99 % (mol/mol)
- Soluble Zn(II) after subjecting complexed or chelated Zn(II) to a two-fold molar excess of phytic acid [2, 7]: 63 % (mol/mol)
- Soluble Zn(II) after subjecting complexed or chelated Zn(II) to a two-fold molar excess of phytic acid [2, 8]: 55* % (mol/mol)
- Soluble Zn(II) after subjecting complexed or chelated Zn(II) to a two-fold molar excess of phytic acid [2, 9]: 13* % (mol/mol)
- Appearance (clear solution or precipitate) of zinc source combined with phytic acid ([2]; levels H, M, L, result in words): immediately a precipitate was formed

Structure (SMILES): CSCC[C@H](N)C(=O)O.[Cu] [copper methionine]
- Solubility in water [3]: insoluble in water
